# Experimental data reported in US20090209605A1, “NEMATICIDAL COMPOSITIONS” (Devgen N.V., priority 2004, published 2009).
# Tests used:
# Type in all cases: in vivo
# [1] = tested on: root-knot nematode (Meloidogyne spp); assay: Nematicide field trial on tomato: root galling and yield; details: for Average root galling: 0-5 Lamberti scale
# Method: (§1) Open field tomatoes (Lycopersicon esculentum, variety incas) were grown on sandy soil with a natural root-knot nematode (Meloidogyne spp) population. Soil samples, collected prior to planting, contained on average 113 J2 juveniles per 100 g soil. A program of 5 applications with intervals of about 14 days was started two days after transplantation.
# (§2) An experimental pattern at Complete Randomized Blocks with four replicas was adopted. Besides the experimental products, each test also included an untreated control and a treatment with the standard commercial product VYDATE 10L (10%) applied in accordance to label instructions.
# The read-outs are the average yield of the marketable tomatoes per plant (Table 7). The level of nematode attack of the root system at the time of harvesting was assessed by means of the lamberti scoring.
# [2] = tested on: Heterodera nematode; assay: Pot Assay 3: Heterodera infection of sugar beet, crop vigor and crop height; details: infested soil
# Description: The soil used in this assay originated from a Heterodera nematode infested sugar plot of which the infestation was confirmed by means of several soil analyses. Each pot was filled up with a soil mixture composed as follows: a) the infested soil was constituted by silt loam soil (about 600 g/pot) mixed with sterile peat (about 600 g/pot) and sterile cork (about 200 g/pot); b) the sterile soil was instead constituted only by sterile peat (1200 g/pot) and sterile cork (200 g/pot).
# (§3) Each compound or compound mixture as described herein was tested in 4 different rates with 4 replicates per rate. One pot per replicate was used in which 18 beava sugar beet seeds (variety GEA (KWS)) were sown. After crop germination, the number of plants was reduced to 10 plants. The 4 rates added to the soil of the tested compounds or compound mixtures were 0.05 mg, 0.20 mg, 1 mg and 5 mg. These amounts translate to field application rates respectively as 30, 120, 600 and 3000 g per hectare.
# Efficacy of the compounds described herein as nematicide was measured by visual inspection of the crop vigor and the crop height. The crop vigor evaluation is based on a 0-100 scale, where 0 is “no vigor” and 100 is “maximum vigor”. The crop height development is based on a measurement, in cm, per plant, excluding the root system.
# Positive control plants were treated with Oxamyl (Vydate 5 G, 5% gr) at a rate of 40 kg fp per ha. Negative controls involved single negative controls (no compound, with nematode infested soil; referenced as “Untreated 1”) and double negative controls (no compound, sterile soil; referenced as “Untreated 2”).
# [3] = tested on: tomato (cv. Rio Grande); assay: Pot Assay 2: root development (vigor of roots) of tomato; details: RATE 0.05 mg; visual value 0 to 10 (10 equal to control)
# Method: Phytotoxicity of compounds as described herein when used as a nematicide, was measured as follows. […] At that moment, plant emergence was assessed for the plants treated with any of the compounds as described herein, by counting the number of plants per compound-concentration.
# Vigor of roots was also assessed once the plants are well established so as not to loose plants. To assess vigor of the plants or roots, a visual value ranging from 0 to 10 (0 no vigor, 10 equal to control) was scored per compound-concentration.
# [4] = tested on: root-knot nematode (Meloidogyne spp); assay: Nematicide field trial on cucumber: root galling and yield; details: Product Rate 1500 g ai/ha
# Method: as §1, with “ground grown cucumber (Cucumis sativus cv Carine)” for “field tomatoes (Lycopersicon esculentum, variety incas)”, “8” for “113”, “4” for “5”, “six” for “two”
# as §2
# […] The level of nematode attack of the root system at the time of harvesting was assessed by means of the lamberti scoring.
# [5] = tested on: sugar beet (variety GEA (KWS)); assay: Pot Assay 3: phytotoxicity, number of sugar beet plants emerged
# Method: as §3
# Phytotoxicity assessments were carried by assessing any possible effects of the chemicals on the crop, such as chlorosis, yellowing, stunting, in comparison to the untreated control without nematodes.
# [6] = Product Rate 4 (footnote g ai/ha)
# [7] = Product Rate 8 (footnote g ai/ha)
smiles,measurement,setting,value
CCCCc1c(C)nc(NCC)nc1OS(=O)(=O)N(C)C [XLIII],Average yield of marketable fruits,[1]; [6],1.28 kg/plant/pot
same,Average root galling,[1]; [6],1.1
same,Average yield of marketable fruits,[1]; [7],1.25 kg/plant/pot
same,Average root galling,[1]; [7],1.6
same,crop height (cm),[2]; Rate 1 mg,14 cm
same,crop vigor (max 100%),[2]; Rate 1 mg,80%
same,crop height (cm),[2]; Rate 5 mg,15 cm
same,crop vigor (max 100%),[2]; Rate 5 mg,100%
same,ROOT DEV.,[3],7.8
same,Average yield of marketable fruits,[4],8.7 kg/plant/pot
same,Average root galling,[4]; 0-5 Lamberti scale,1.5
same,# crops emerged (max 18),[5]; Rate 1 mg,18
same,# crops emerged (max 18),[5]; Rate 5 mg,18
